Measured values as given in PMC12786355 (Biochimica et biophysica acta. Proteins and proteomics, 2024).

Tests used:
[1] = target: T1, MCR-C (C-terminal domain of malonyl-CoA reductase) (Chloroflexus aurantiacus, UniProt A9WIU3); experiment: NADPH absorbance at […] nm, product inhibition; assay type: biochemical
[2] = target: T1, MCR-C (C-terminal domain of malonyl-CoA reductase); experiment: NADPH absorbance at […] nm, dead-end inhibition; assay type: biochemical

Compound	Ki [1]	Ki [2]
CC(C)(COP(=O)(O)OP(=O)(O)OC[C@H]1O[C@@H](n2cnc3c(N)ncnc32)[C@H](O)[C@@H]1OP(=O)(O)O)[C@@H](O)C(=O)NCCC(=O)NCCS [CoA]	238 ± 14 µM	
NC(=O)c1ccc[n+]([C@@H]2O[C@H](COP(=O)(O)OP(=O)(O)OC[C@H]3O[C@@H](n4cnc5c(N)ncnc54)[C@H](OP(=O)(O)O)[C@@H]3O)[C@@H](O)[C@H]2O)c1 [NADP^+]	104 ± 15 µM	
O=CC(=O)O [glyoxylic acid]		6 ± 0.8 µM
